Results from patent publication US20190314256A1, “COSMETIC BASE INCLUDING AMIDE ALCOHOL ESTER, AND COSMETIC” (Kokyu Alcohol Kogyo Co., Ltd., priority 2016, published 2019).

Tests used:
Type in all cases: physicochemical
[1] = Solubility and gelling ability with each liquid; critical gelation concentration by sample tube inversion method; parameters: key: S: Soluble; I: Insoluble/separation; G: Gel; T: Thickening; EG: Emulsion gel
Method: The amide alcohol or ester of amide alcohol was heated and mixed with each liquid, and the critical gelation concentration was measured by sample tube inversion method.
Sample tube used: used tube: Maruemu screw tube No. 7 (trunk diameter 35 mm total length 78 mm)

[2] = as above; conditions: physical form of the ester
[3] = Pigment dispersibility (wet point WP and flow point FP); conditions: titanium oxide, zinc oxide, iron oxide
Source text: 1. Weigh 1.5 g of a pigment in mortar. 2. Gradually add an oil dropwise and knead with a pestle. 3. Check the weight of the oil at each point of WP and FP. 4. Calculate WP and FP per 100 g of the pigment. WP: Wet point (the lower the wet point, the better the wettability of the pigment.) FP: Flow point (the lower the flow point, the better the dispersibility of the pigment.)

Viscosity = test: Viscosity

Row | Molecule | solubility and gelling ability ([1]; Ethanol) | solubility and gelling ability ([1]; Glycerin) | solubility and gelling ability ([1]; Octyldodecanol) | solubility and gelling ability ([1]; Octyldodecyl myristate) | solubility and gelling ability ([1]; Squalane) | solubility and gelling ability ([1]; Triethylhexanoin) | solubility and gelling ability ([1]; Water) | Property [2] | pigment dispersibility [3] | viscosity (Viscosity)
1 | CCCCCCCCCCCCCC(=O)OCCCC(=O)NCCCCCCCCCCCC [LBA-M, N-laurylbutyramide-4-myristic acid ester] | G | I | G | G | G | G | I | Solid | – | –
2 | N-2 ethylhexylbutyramide 4-isostearic acid ester [EHBA-IS] | – | – | – | – | – | – | – | – | excellent pigment dispersibility | approximately 270 mPa·s
3 | CCCCCCCCCCCC(=O)OCCCC(=O)NCCCCCCCC [OBA-L, N-octylbutyramide-4-lauric acid ester] | S | I | G | G | G | G | I | Solid | – | –
4 | N-cyclohexylbutyramide-4-isostearic acid ester [CHBA-IS] | – | – | – | – | – | – | – | – | excellent pigment dispersibility | approximately 230 mPa·s
5 | CCCCCCCCCCCC(=O)OCCCC(=O)NC1CCCCC1 [CHBA-L, N-cyclohexylbutyramide-4-lauric acid ester] | S | I | G | G | G | G | I | Solid | – | –
6 | CCCCCCCCCCCC(=O)OCCCC(=O)NCC(CC)CCCC (centres unmarked) [EHBA-L, N-2 ethylhexylbutyramide-4-lauric acid ester] | S | I | S | S | I | I | I | Solid | – | –
7 | CCCCCCCCCCCCNC(=O)CCCOC(=O)CCCCCCCCCCC [LBA-L, N-laurylbutyramide-4-lauric acid ester] | G | I | G | G | G | G | I | Solid | – | –
